In general, pIC50 refers to −log10 of the IC50, conventionally taken in molar units.

SMILES strings stand for the structures. pIC50: −log10 of the molar value.

The test system of this assay is human Cav3.1 Cav3.2 or Cav3.3 channel. As to the kind of experiment: In vitro assay T channel (FLIPR calcium fluorescence). It is filed as cell-based. The settings on record: HEK293 cells expressing human Cav3.1, Cav3.2 or Cav3.3; 10 mM Ca2+-induced fluo-4 fluorescence; determined up to 10 μM; read-out: T channel antagonistic activity IC50. As for the experimental part:
The T channel antagonistic activity (IC50 values) of the compounds of formula (I) is determined in accordance with the following experimental method and data are shown in Table 1.
Human embryonic kidney (HEK293) cells expressing the human Cav3.1 Cav3.2 or Cav3.3 channel, respectively, are grown in culture medium (DMEM containing 10% heat-inactivated fetal calf serum (FCS), 100 U/ml penicillin, 100 μg/ml streptomycin and 1 mg/ml G418). The cells are seeded at 20.000 cells/well into 384-well black clear bottom sterile plates (poly-L-lysine-coated, Becton Dickinson). The seeded plates are incubated overnight at 37° C. in 5% CO2. The Ca^2+ solution is prepared as 100 mM stock solution in 100 mM tetraethylammoniumchloride (TEA-chloride), 50 mM HEPES, 2.5 mM CaCl2, 5 mM KCl, 1 mM MgCl2, adjusted to pH 7.2 with TEA-hydroxide, for use in the assay at a final concentration of 10 mM. Antagonists are prepared as 10 mM stock solutions in DMSO, then diluted in 384 w plates first in DMSO, then in 100 mM TEA-chloride, 50 mM HEPES, 2.5 mM CaCl2, 5 mM KCl, 1 mM MgCl2, adjusted to pH 7.2 with TEA-hydroxide, to obtain 9× stocks. On the day of the assay, 25 μl of staining buffer (HBSS containing 20 mM HEPES, 0.375 g/l NaHCO3 and 3 μM of the fluorescent calcium indicator fluo-4 AM (1 mM stock solution in DMSO, containing 10% pluronic) is added to each well of the seeded plate. The 384-well cell-plates are incubated for 60 min at 37° C. in 5% CO2 followed by washing with 2×50 μl per well using HBSS containing 0.1% BSA, 20 mM HEPES, 0.375 g/l NaHCO3, leaving 50 […] of this buffer for equilibration at room temperature (30-60 min). Within the Fluorescent Imaging Plate Reader (FLIPR, Molecular Devices), antagonists are added to the plate in a volume of 6.25 μl/well, incubated for 3 min, and finally 6.25 […] of Ca^2+ solution is added. Fluorescence is measured for each well at 2 second intervals for 8 minutes, and the area under the curve of each fluorescence peak is compared to the area of the fluorescence peak induced by 10 mM Ca^2+ with vehicle in place of antagonist. For each antagonist, the IC50 value (the concentration (in nM) of compound needed to inhibit 50% of the Ca^2+-induced fluorescence response) up to 10 μM is determined.
As for `Cc1ccc(C2=C[C@H]3CC[C@@H]2C[C@]3(CCN(C)CCCc2nc3ccccc3[nH]2)OC(=O)C(C)C)cc1` (relative stereo) [Example 6A, rac-Isobutyric acid (1R*,2R*,4R*)-2-(2-{[3-(1H-benzoimidazol-2-yl)-propyl]-methyl-amino}-ethyl)-5-(4-methyl-phenyl)-bicyclo[2.2.2]oct-5-en-2-yl ester], the negative logarithm of the IC50 (pIC50) is 5.17.
The result for `CN(CCc1nc2ccccc2[nH]1)CC[C@]1(O)C[C@H]2CC[C@@H]1C=C2c1ccccc1` (relative stereo) [Example 13, rac-(1R*,2R*,4R*)-2-(2-{[2-(1H-Benzoimidazol-2-yl)-ethyl]-methyl-amino}-ethyl)-5-phenyl-bicyclo[2.2.2]oct-5-en-2-ol] reads 5.56; that for `CC(C)Oc1cccc2nc(CCCN(C)CC[C@]3(OC(=O)C(C)C)C[C@H]4CC[C@@H]3C=C4c3ccccc3)[nH]c12` (relative stereo) [Example 33A, rac-Isobutyric acid (1R*,2R*,4R*)-2-(2-{[3-(7-isopropoxy-1H-benzoimidazol-2-yl)-propyl]-methyl-amino}-ethyl)-5-phenyl-bicyclo[2.2.2]oct-5-en-2-yl ester], 5.78.
Regarding `COc1ccc(C)c2nc(CCCN(C)CC[C@]3(OC(=O)C(C)C)C[C@H]4CC[C@@H]3C=C4c3ccccc3)[nH]c12` (relative stereo) [Example 30A, rac-Isobutyric acid (1R*,2R*,4R*)-2-(2-{[3-(7-methoxy-4-methyl-1H-benzoimidazol-2-yl)-propyl]-methyl-amino}-ethyl)-5-phenyl-bicyclo[2.2.2]oct-5-en-2-yl ester], the negative-log IC50 (pIC50) was 5.90.
`COc1cccc2[nH]c(CCCN(C)CCC3(OC(=O)C(C)C)CC4CCC3C=C4c3ccccc3)nc12` [Example 55A, Isobutyric acid (1R,2R,4R)-2-(2-{[3-(4-methoxy-1H-benzoimidazol-2-yl)-propyl]-methyl-amino}-ethyl)-5-phenyl-bicyclo[2.2.2]oct-5-en-2-yl ester or isobutyric acid (1S,2S,4S)-2-(2-{[3-(4-methoxy-1H-benzoimidazol-2-yl)-propyl]-methyl-amino}-ethyl)-5-phenyl-bicyclo[2.2.2]oct-5-en-2-yl ester]: the negative-log IC50 (pIC50) was 5.97.
Regarding `CC(C)C(=O)OC1(CCN(C)CCCc2nc3ccccc3[nH]2)CC2CCC1C=C2c1ccccc1` [Example 12A, Isobutyric acid (1R,2R,4R)-2-(2-{[3-(1H-benzoimidazol-2-yl)-propyl]-methyl-amino}-ethyl)-5-phenyl-bicyclo[2.2.2]oct-5-en-2-yl ester or isobutyric acid (1S,2S,4S)-2-(2-{[3-(1H-benzoimidazol-2-yl)-propyl]-methyl-amino}-ethyl)-5-phenyl-bicyclo[2.2.2]oct-5-en-2-yl ester], the pIC50 was 5.37.
Turning to `COc1cc2nc(CCCN(C)CC[C@]3(OC(=O)C(C)C)C[C@H]4CC[C@@H]3C=C4c3ccccc3)[nH]c2cc1OC` (relative stereo) [Example 28A, rac-Isobutyric acid (1R*,2R*,4R*)-2-(2-{[3-(5,6-dimethoxy-1H-benzoimidazol-2-yl)-propyl]-methyl-amino}-ethyl)-5-phenyl-bicyclo[2.2.2]oct-5-en-2-yl ester], the negative logarithm of the IC50 (pIC50) is 5.46.
`COc1ccc(C)c2nc(CCCN(C)CC[C@]3(O)C[C@H]4CC[C@@H]3C=C4c3ccccc3)[nH]c12` (relative stereo) [Example 30, rac-(1R*,2R*,4R*)-2-(2-{[3-(7-Methoxy-4-methyl-1H-benzoimidazol-2-yl)-propyl]-methyl-amino}-ethyl)-5-phenyl-bicyclo[2.2.2]oct-5-en-2-ol]: the negative-log IC50 (pIC50) is 5.75.
The result for `COc1cccc2[nH]c(CCCN(C)CCC3(OC(=O)C(C)C)CC4CCC3C=C4c3ccccc3)nc12` [Example 54A, Isobutyric acid (1R,2R,4R)-2-(2-{[3-(4-methoxy-1H-benzoimidazol-2-yl)-propyl]-methyl-amino}-ethyl)-5-phenyl-bicyclo[2.2.2]oct-5-en-2-yl ester or isobutyric acid (1S,2S,4S)-2-(2-{[3-(4-methoxy-1H-benzoimidazol-2-yl)-propyl]-methyl-amino}-ethyl)-5-phenyl-bicyclo[2.2.2]oct-5-en-2-yl ester] reads 5.94.
For the compound `CC(C)C(=O)O[C@@]1(CCN(C)CCCc2cnc3occc3c2)C[C@H]2CC[C@@H]1C=C2c1ccccc1` (relative stereo) [Example 41A, rac-Isobutyric acid (1R*,2R*,4R*)-2-{2-[(3-furo[2,3-b]pyridin-5-yl-propyl)-methyl-amino]-ethyl}-5-phenyl-bicyclo[2.2.2]oct-5-en-2-yl ester], the negative-log IC50 (pIC50) was 5.08.
The result for `CCOc1ccc(CCN(CC)CC[C@]2(O)C[C@H]3CC[C@@H]2C=C3c2ccccc2)cc1OCC` (relative stereo) [Example 38, rac-(1R*,2R*,4R*)-2-(2-{[2-(3,4-Diethoxy-phenyl)-ethyl]-ethyl-amino}-ethyl)-5-phenyl-bicyclo[2.2.2]oct-5-en-2-ol] reads 5.17.
Regarding `CC(C)C(=O)Oc1cccc2nc(CCCN(C)CC[C@]3(OC(=O)C(C)C)C[C@H]4CC[C@@H]3C=C4c3ccccc3)[nH]c12` (relative stereo) [Example 34A, rac-Isobutyric acid (1R*,2R*,4R*)-2-(2-{[3-(7-isobutyryloxy-1H-benzoimidazol-2-yl)-propyl]-methyl-amino}-ethyl)-5-phenyl-bicyclo[2.2.2]oct-5-en-2-yl ester], the pIC50 was 5.36.
The result for `CN(CCCc1nc2ccccc2[nH]1)CC[C@]1(O)C[C@H]2CC[C@@H]1C=C2c1cccnc1` (relative stereo) [Example 9, rac-(1R*,2R*,4R*)-2-(2-{[3-(1H-Benzoimidazol-2-yl)-propyl]-methyl-amino}-ethyl)-5-pyridin-3-yl-bicyclo[2.2.2]oct-5-en-2-ol] reads < 5.00; that for `COCC(C)(COC)C(=O)N(C)CCCN(C)CC[C@]1(OC(=O)C(C)C)C[C@H]2CC[C@@H]1C=C2c1ccccc1` (relative stereo) [Example 51A, rac-Isobutyric acid (1R*,2R*,4R*)-2-[2-({3-[(3-methoxy-2-methoxymethyl-2-methyl-propionyl)-methyl-amino]-propyl}-methyl-amino)-ethyl]-5-phenyl-bicyclo[2.2.2]oct-5-en-2-yl ester], 5.35; that for `CC(C)C(=O)O[C@@]1(CCN(C)Cc2nc3ccccc3[nH]2)C[C@H]2CC[C@@H]1C=C2c1ccccc1` (relative stereo) [Example 14A, rac-Isobutyric acid (1R*,2R*,4R*)-2-{2-[(1H-benzoimidazol-2-ylmethyl)-methyl-amino]-ethyl}-5-phenyl-bicyclo[2.2.2]oct-5-en-2-yl ester], 5.50.
`Cc1cccc(C2=C[C@H]3CC[C@@H]2C[C@@]3(O)CCN(C)CCCc2nc3ccccc3[nH]2)c1` (relative stereo) [Example 5, rac-(1R*,2R*,4R*)-2-(2-{[3-(1H-Benzoimidazol-2-yl)-propyl]-methyl-amino}-ethyl)-5-(3-methyl-phenyl)-bicyclo[2.2.2]oct-5-en-2-ol]: the pIC50 was 5.07.
Regarding `CC(C)C(=O)O[C@@]1(CCN(C)CCCc2nc(-c3ccccc3)c(-c3ccccc3)[nH]2)C[C@H]2CC[C@@H]1C=C2c1ccccc1` (relative stereo) [Example 47A, rac-Isobutyric acid (1R*,2R*,4R*)-2-(2-{[3-(4,5-diphenyl-1H-imidazol-2-yl)-propyl]-methyl-amino}-ethyl)-5-phenyl-bicyclo[2.2.2]oct-5-en-2-yl ester], the negative logarithm of the IC50 (pIC50) was 5.10.
The result for `CO[C@@]1(c2ccccc2)C[C@H]2CC[C@@H]1C[C@@]2(CCN(C)CCCc1nc2ccccc2[nH]1)OC(=O)C(C)C` (relative stereo) [Example 77A, rac-Isobutyric acid (1R*,2S*,4R*,5S*)-2-(2-{[3-(1H-benzoimidazol-2-yl)-propyl]-methyl-amino}-ethyl)-5-methoxy-5-phenyl-bicyclo[2.2.2]oct-2-yl ester] reads 5.58.
The result for `CC(C)C(=O)O[C@@]1(CCN(C)CCCc2nc3ccccc3[nH]2)C[C@H]2CC[C@@H]1C=C2c1ccc(F)cc1` (relative stereo) [Example 8A, rac-Isobutyric acid (1R*,2R*,4R*)-2-(2-{[3-(1H-benzoimidazol-2-yl)-propyl]-methyl-amino}-ethyl)-5-(4-fluoro-phenyl)-bicyclo[2.2.2]oct-5-en-2-yl ester] reads 5.79.

These data come from US8202885B2, “Bridged six-membered ring compounds” (Actelion Pharmaceuticals Ltd., priority 2007, dated 2012).
